{"source": "patent US20090105149A1", "about": "“Compounds comprising lpa” (ENKAM PHARMACEUTICALS A/S, priority 2003, published 2009)", "key": {"[1]": {"test_system": "cerebellar granule neurons (CGN)", "assay": "TUNEL assay, DNA-fragmentation in KCl-deprived CGN", "assay_type": "cell-based, rat", "settings": "at 10-15 μg/ml; relative to apoptotic neurons without treatment", "experimental": "The number of neurons with fragmented DNA was measured using the Apo-Alert apoptosis detection kit and the fraction of TUNEL-positive neurons was estimated by counting. Results from at least four independent experiments are shown as percentage of cells showing DNA-fragmentation relative to the total number of cells ±SEM with control cultures in low KCl set at 100%. • (a) Effect of depriving CGN cultures of high KCl on number of cells undergoing apoptosis. • (b) Effect of FGLd in apoptosis-induced CGN cultures.\n24 hours after induction of apoptotic cell death, the cultures were fixed and the extent of DNA-fragmentation was measured using the ApoAlert apoptosis detection kit, essentially as described by the manufacturer. Briefly, blunt ends of double-stranded DNA molecules were enzymatically labelled with fluorescein-dUTP, and all the neurons were stained with propidium iodide at a concentration of 750 ng/ml. Images of at least 200 neurons from each group in each experiment were obtained using a BioRad Radiance laser scanning system 2000 coupled to a Nikon Eclipse TE 200 confocal microscope equipped with an oil immersion 60×1.4 NA objective (Nikon, Tokyo, Japan). The fraction of TUNEL-positive neurons was determined by counting."}, "hippocampal neurons [2]": {"test_system": "hippocampal neurons", "assay": "FM 1-43 destaining (presynaptic vesicle turnover) in hippocampal neurons", "assay_type": "cell-based, rat", "experimental": "The values were compared using an unpaired t-test. *p=0.04 (1 h) and **p=0.0032 (48 h). FGLcontrol is a control peptide consisting the sequence […] (SEQ ID NO: 147).\nThe effects of FGLd on vesicle turnover was estimated in primary cultures of hippocampal neurons from embryonic rats (E19). The cultures were prepared as above. Following 13-16 days in vitro, FGLd was added to the cultures and incubated for 1, 24 or 48 hours. After 48 hours of incubation, the FGFR-inhibitor (SU 5402) was added simultaneously with FGLd to some of the cultures.\nAfter treatment with FGLd the neurons were labeled with the fluorescent membrane probe FM 1-43 as described by Kiryushko et al (2003) J Biol. Chem. 278:12325-34. The rate of FM 1-43 release (destaining of cells) evoked by depolarisation with 90 mM potassium was then evaluated by a time-lapse image acquisition using the Radiance 2000 scanning system and a Nikon eclipse TE200 confocal microscopy."}, "hippocampal neurons [3]": {"test_system": "hippocampal neurons", "assay": "Synapse formation, synaptophysin/GAP-43 double-immunostaining", "assay_type": "cell-based, rat", "experimental": "The effect of FGLd on synapse formation was further evaluated using double-immunostaining of neurites and synapses in primary embryonic (E19) hippocampal neurons grown in culture for 13 days. Cells were incubated with FGLd for 48 or 96 hours, before fixation and immunostaining. The synapses were detected by antibodies against synaptophysin and the neyrites were labelled by antibodies against the growth-associated protein-43 (GAP-43—also called B-50 or F1). The immunostaining was visualised and quantified by confocal fluorescence microscopy as described by Rønn et al. (2000) (op. cit.)."}, "[4]": {"test_system": "rats treated with (25-35) β-amyloid fragment", "assay": "Open Field test, (25-35) β-amyloid fragment rat model", "assay_type": "in vivo", "settings": "day 14; for time spent exploring holes / time spent rearing: sub-occipital, days 7, 10, 13", "experimental": "The peptide was applied sub-occipitally at days 7, 10, and 13 after the (25-35) β-amyloid fragment induced neurotoxicity. […] The number of animals per group varied from 9 to 11. ‘A-β’ and ‘V’ are the abbreviations of the (25-35) β-amyloid fragment and vehicle, respectively. The results were analysed using unpaired t-test and significance of results was contingent on achieving a p-value of less than 0.05 (*p<0.05, **p<0.01), when compared with the first measurement period (1-3 min.).\nThe present study employed a rat model, in which neurotoxicity and cognitive impairment were induced by the (25-35) β-amyloid peptide fragment (see Maurice T., et al. (1996) (Brain Res. 706:181-93) and Delobette S., et al. (1997) Eur J Pharmacol. 319:1-4). Short-term memory deficit induced by the (25-35) β-amyloid peptide fragment in rat is of special importance to study, as it resembles one of the clinical manifestations of Alzheimer's disease. Short-term memory deficit in rats was evaluated using three different behavioural tests: the Social Recognition (Kogan et al, (2000) Hippocampus 10:47-56), Open Field (Cerbone and Sadile, (1994) Neurosci Biobehav Rev. 18:497-518; Vianna et al, (2000) Learn Mem. 7:333-40) and Y-maze (Clayton & Williams, (2000) Neurobiol Learn Mem. 74:135-45) tests. In addition, neuropathological investigations were performed on brain tissue collected at the time of sacrifice. The FGL peptide was administered either sub-occipitally or intranasally.\nBehaviour of animals was evaluated using the Social Recognition test, the Open Field test or the Light-dark Discriminating γ-maze. On day 28-30 or day 51 after i.c.v. administration of the (25-35) β-amyloid fragment, the animals were sacrificed, and in selected studies, the brain tissue was collected, histological sections were immunostained with A-β specific antibodies and the amyloid-burden was calculated as a percentage of the A-βpositive area. In addition, the number of neurons in selected areas of brain-sections was calculated using a stereological approach."}, "rat pups": {"test_system": "rat pups", "assay": "Negative Geotaxis Reflex in rat pups", "assay_type": "in vivo", "settings": "PND 6; intranasal 2.6 μg per pup at PND 1, 2, 3", "experimental": "The number of litters of each treatment group was six. The results were analysed using one-way ANOVA (FPND6=5.14; PPND6=0.008). […] FGLcontrol as above.\nSensory Motor Control Development study."}, "adult male Wistar rats": {"test_system": "adult male Wistar rats", "assay": "Contextual Fear Conditioning test", "assay_type": "in vivo, rat", "settings": "5 μg immediately after training", "from_the_text": "In the Contextual Fear Conditioning test, rats experienced inescapable shocks when exposed to a *new environment, which results in the development of a conditioned fear response, consisting of a characteristic immobility or ‘freezing response’, when subsequently re-exposed to the same environment.\nThe rats were handled for 120 seconds every day for 3 days preceding the first day of the experiment. On day 1 (training), the rats received a 1-second shock (unconditioned stimuli) each minute for two minutes. Animals were injected immediately after training with 5 μl FGLd (5 μg), the control peptide (5 μg) or the vehicle. Each treatment group consisted of 11-14 rats. In total, 39 animals were evaluated. Animals were tested on days 2, 7 and 30 by placing them in the chamber used for conditioning, but in the absence of a shock, for 8 minutes. Each rat was rated as either “freezing” or “active”, every 2 seconds, using a time-sampling procedure."}}, "data": [{"substance": "FGLd: MAP-type dendrimer of FGL; dendrimeric tetramer of the FGL peptide (EVYVVAENQQGKSKA)", "values": [{"measurement": "reduction of number of apoptotic CGN (DNA-fragmentation), maximal rescue", "setting": "[1]", "value": 40, "unit": "%"}, {"measurement": "rate of FM 1-43 unloading", "setting": "hippocampal neurons [2]; 5 μg/ml for any time period", "value": "Neither treatment with 5 μg/ml FGLd for any time period, nor the treatment with 20 μg/ml for 24 hours had any effect"}, {"measurement": "rate of FM 1-43 destaining", "setting": "hippocampal neurons [2]; 20 μg/ml for 1 h, control 0.008", "value": 0.016, "unit": "s⁻¹"}, {"measurement": "rate of FM 1-43 destaining", "setting": "hippocampal neurons [2]; 20 μg/ml for 24 h", "value": "did not result in a significant effect"}, {"measurement": "rate of FM 1-43 destaining", "setting": "hippocampal neurons [2]; 20 μg/ml for 48 h, control 0.013", "value": 0.028, "unit": "s⁻¹"}, {"measurement": "increase in the number of synaptophysin positive spots per 100 μm length of neurite", "setting": "hippocampal neurons [3]; 20 μg/ml for 48 and 96 hours", "value": "approximately 20%"}, {"measurement": "number of synaptophysin positive spots per 100 μm length of neurite", "setting": "hippocampal neurons [3]; 20 μg/ml for 48 hours, control 2.40", "value": 2.96}, {"measurement": "number of synaptophysin positive spots per 100 μm length of neurite", "setting": "hippocampal neurons [3]; 20 μg/ml for 96 hours, control 2.73", "value": 3.24}, {"measurement": "locomotion activity", "setting": "[4]", "value": "unaffected"}, {"measurement": "time spent exploring holes", "setting": "[4]; first measurement period", "value": 3.3, "unit": "s"}, {"measurement": "time spent rearing", "setting": "[4]; first measurement period", "value": 7.0, "unit": "s"}, {"measurement": "time spent exploring holes", "setting": "[4]; last measurement period", "value": 0.1, "unit": "s"}, {"measurement": "time spent rearing", "setting": "[4]; last measurement period", "value": 0.7, "unit": "s"}, {"measurement": "Negative Geotaxis Reflex test, significance vs control and FGLcontrol groups", "setting": "rat pups", "value": "statistically significant effects"}, {"measurement": "percentage of freezing time", "setting": "adult male Wistar rats; day 2 after conditioning, control 50.5%", "value": 73.5, "unit": "%"}, {"measurement": "percentage of freezing time", "setting": "adult male Wistar rats; day 7 after conditioning, control 30.0%", "value": 60.3, "unit": "%"}]}]}
